The record followed here is patent publication US8168680B2, “Cyclopentane heptan(ENE)OIC acid, 2-heteroarylalkenyl derivatives as therapeutic agents” (Allergan, Inc., priority 2004, dated 2012).

SMILES strings stand for the structures.

In one experiment the target is T1, hFP (Homo sapiens, UniProt P43088).
T1 construct: expressed in transfected cells; host or cells: HEK-293(EBNA)
T1 sequence (P43088 whole entry): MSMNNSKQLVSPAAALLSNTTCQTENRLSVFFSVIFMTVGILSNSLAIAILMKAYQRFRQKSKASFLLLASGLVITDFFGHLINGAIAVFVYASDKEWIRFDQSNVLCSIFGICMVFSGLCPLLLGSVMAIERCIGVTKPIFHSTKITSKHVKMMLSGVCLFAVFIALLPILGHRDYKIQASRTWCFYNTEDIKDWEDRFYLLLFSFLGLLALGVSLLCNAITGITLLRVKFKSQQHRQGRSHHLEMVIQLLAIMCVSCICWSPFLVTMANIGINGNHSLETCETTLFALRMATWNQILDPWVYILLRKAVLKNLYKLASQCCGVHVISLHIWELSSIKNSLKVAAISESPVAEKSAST
Put plainly: FLIPR calcium signal, HEK-293(EBNA) cells expressing hFP. In kind it is cell-based. Conditions: recombinant human FP receptor, read-out: FUNCTIONAL DATA EC50 HFP. How it is done:
(§1) Methods for FLIPR™ Studies
(§2) HEK-293(EBNA) cells, stably expressing one type or subtype of recombinant human prostaglandin receptors (prostaglandin receptors expressed: hDP/Gqs5; hEP1; hEP2/Gqs5; hEP3A/Gqi5; hEP4/Gqs5; hFP; hIP; hTP), were cultured in 100 mm culture dishes in high-glucose DMEM medium containing 10% fetal bovine serum, 2 mM 1-glutamine, 250 μg/ml geneticin (G418) and 200 μg/ml hygromycin B as selection markers, and 100 units/ml penicillin G, 100 μg/ml streptomycin and 0.25 μg/ml amphotericin B.
(§3) (b) Calcium Signal Studies on the FLIPR™
(§4) Cells were seeded at a density of 5×10^4 cells per well in Biocoat® Poly-D-lysine-coated black-wall, clear-bottom 96-well plates (Becton-Dickinson) and allowed to attach overnight in an incubator at 37° C. Cells were then washed two times with HBSS-HEPES buffer (Hanks Balanced Salt Solution without bicarbonate and phenol red, 20 mM HEPES, pH 7.4) using a Denley Cellwash plate washer (Labsystems). After 45 minutes of dye-loading in the dark, using the calcium-sensitive dye Fluo-4 AM at a final concentration of 2 μM, plates were washed four times with HBSS-HEPES buffer to remove excess dye leaving 100 μl in each well. Plates were re-equilibrated to 37° C. for a few minutes.
(§5) Cells were excited with an Argon laser at 488 nm, and emission was measured through a 510-570 nm bandwidth emission filter (FLIPR™, Molecular Devices, Sunnyvale, Calif.). Drug solution was added in a 50 μl volume to each well to give the desired final concentration. The peak increase in fluorescence intensity was recorded for each well. On each plate, four wells each served as negative (HBSS-HEPES buffer) and positive controls (standard agonists: BW245C (hDP); PGE2 (hEP1; hEP2/Gqs5; hEP3A/Gqi5; hEP4/Gqs5); PGF2α (hFP); carbacyclin (hIP); U-46619 (hTP), depending on receptor). The peak fluorescence change in each drug-containing well was then expressed relative to the controls.
Compounds were tested in a high-throughput (HTS) or concentration-response (CoRe) format. In the HTS format, forty-four compounds per plate were examined in duplicates at a concentration of 10^−5 M. To generate concentration-response curves, four compounds per plate were tested in duplicates in a concentration range between 10^−5 and 10^−11 M. The duplicate values were averaged. In either, HTS or CoRe format each compound was tested on at least 3 separate plates using cells from different passages to give an n≧3.
With `Cc1sc(CC[C@H](O)/C=C/[C@H]2[C@H](C)CC(O)[C@@H]2C/C=C\CCCC(=O)O)cc1Br` (single isomer, unassigned), the concentration giving a half-maximal response (EC50) (as a rule, the concentration at which the effect is half-maximal) was determined as 43 nM.
Consider `C=C[C@@H]1CC(O)[C@H](C/C=C\CCCC(=O)OC)[C@H]1/C=C/[C@@H](O)CCc1cc(Br)c(C)s1` (single isomer, unassigned) [drawing 49], for which the EC50 was 742 nM.
On to `C=C[C@@H]1CC(O)[C@H](C/C=C\CCCC(=O)O)[C@H]1/C=C/[C@@H](O)CCc1cc(Br)c(C)s1` (single isomer, unassigned) [drawing 48], for which the EC50 turned out to be 1530 nM.
On the same count and under the same terms, the same measure for `C=C[C@@H]1CC(O)[C@H](C/C=C\CCCC(=O)OC)[C@H]1/C=C/[C@@H](O)CCc1cc(Br)c(C)s1` (single isomer, unassigned) [drawing 51]: more than 10000 nM; for `C=C[C@@H]1CC(O)[C@H](C/C=C\CCCC(=O)O)[C@H]1/C=C/[C@@H](O)CCc1cc(Br)c(C)s1` (single isomer, unassigned) [drawing 47]: 61 nM.

The target of another experiment is T2, hEP3A/Gqi5 (Homo sapiens, UniProt P43115).
T2 construct: expressed in transfected cells; host or cells: HEK-293(EBNA)
T2 sequence (P43115 1-390): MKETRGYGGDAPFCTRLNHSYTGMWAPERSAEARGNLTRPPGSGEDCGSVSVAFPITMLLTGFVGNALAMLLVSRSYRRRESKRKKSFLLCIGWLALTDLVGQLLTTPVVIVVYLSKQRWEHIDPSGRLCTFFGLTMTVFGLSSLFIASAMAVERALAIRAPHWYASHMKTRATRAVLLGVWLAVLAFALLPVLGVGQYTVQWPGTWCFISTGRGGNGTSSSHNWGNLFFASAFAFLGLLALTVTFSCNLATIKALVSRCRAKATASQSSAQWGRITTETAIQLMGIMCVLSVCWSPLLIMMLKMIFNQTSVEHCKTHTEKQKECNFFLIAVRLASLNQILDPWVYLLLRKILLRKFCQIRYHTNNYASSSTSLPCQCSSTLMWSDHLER
Put plainly: FLIPR calcium signal, HEK-293(EBNA) cells expressing hEP3A/Gqi5. Particulars: recombinant human EP3A/Gqi5, HEK-293(EBNA), read-out: FUNCTIONAL DATA EC50 HEP3A. Format: cell-based. How it is done: as §1, §2, §3, §4, §5
(§6) Compounds were tested in a high-throughput (HTS) or concentration-response (CoRe) format. […]
In the case of `C=C[C@@H]1CC(O)[C@H](C/C=C\CCCC(=O)OC)[C@H]1/C=C/[C@@H](O)CCc1cc(Br)c(C)s1` (single isomer, unassigned) [drawing 49], the EC50 was determined as 6010 nM.
Still for that read-out and setting: the same measure for `C=C[C@@H]1CC(O)[C@H](C/C=C\CCCC(=O)O)[C@H]1/C=C/[C@@H](O)CCc1cc(Br)c(C)s1` (single isomer, unassigned) [drawing 48]: 554 nM; for `C=C[C@@H]1CC(O)[C@H](C/C=C\CCCC(=O)O)[C@H]1/C=C/[C@@H](O)CCc1cc(Br)c(C)s1` (single isomer, unassigned) [drawing 47]: 304 nM.

The next experiment concerns the target T3, hTP (Homo sapiens, UniProt P21731).
T3 construct: expressed in transfected cells; host or cells: HEK-293(EBNA)
T3 sequence (P21731 1-343): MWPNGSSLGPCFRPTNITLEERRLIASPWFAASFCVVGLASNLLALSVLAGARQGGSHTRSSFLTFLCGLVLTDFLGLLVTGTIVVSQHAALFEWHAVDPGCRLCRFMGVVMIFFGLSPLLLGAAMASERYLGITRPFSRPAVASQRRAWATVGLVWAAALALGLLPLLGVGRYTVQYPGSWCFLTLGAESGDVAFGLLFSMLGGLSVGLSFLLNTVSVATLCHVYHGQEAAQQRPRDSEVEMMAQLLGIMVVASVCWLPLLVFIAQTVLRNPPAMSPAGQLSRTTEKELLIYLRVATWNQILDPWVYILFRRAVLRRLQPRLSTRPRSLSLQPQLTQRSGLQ
Put plainly: FLIPR calcium signal, HEK-293(EBNA) cells expressing hTP. In kind it is cell-based. Conditions: recombinant human TP receptor, read-out: FUNCTIONAL DATA EC50 HTP. How it is done:
as §1, §2, §3, §4, §5, §6
Regarding `C=C[C@@H]1CC(O)[C@H](C/C=C\CCCC(=O)OC)[C@H]1/C=C/[C@@H](O)CCc1cc(Br)c(C)s1` (single isomer, unassigned) [drawing 49], the EC50 turned out to be 1810 nM.
Take `C=C[C@@H]1CC(O)[C@H](C/C=C\CCCC(=O)OC)[C@H]1/C=C/[C@@H](O)CCc1cc(Br)c(C)s1` (single isomer, unassigned) [drawing 51]: the EC50 was more than 10000 nM.
On the same count and under the same terms, the figure for `C=C[C@@H]1CC(O)[C@H](C/C=C\CCCC(=O)O)[C@H]1/C=C/[C@@H](O)CCc1cc(Br)c(C)s1` (single isomer, unassigned) [drawing 47] is 243 nM.
